Reference: PubChem BioAssay (NCI)
Values joined by “and” are separate entries in the source; they are usually repeats but may differ in a detail not shown here. Equal values may be shown once.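 How tested: cells in 96-well plates exposed to compound for 48 hours at five concentrations. GI50 = concentration required for 50% inhibition of growth. TGI is the concentration that stops growth completely.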

Tests used:
Test in all cases: NCI-60 cell line screen, 48 h
[1] = tested on: OVCAR-8 ovarian
[2] = tested on: SK-MEL-2 melanoma
[3] = tested on: SK-MEL-28 melanoma
[4] = tested on: SW-620 colon
[5] = tested on: MOLT-4 leukemia
[6] = tested on: RPMI-8226 leukemia
[7] = tested on: OVCAR-3 ovarian
[8] = tested on: UO-31 renal
[9] = tested on: SNB-75 CNS
[10] = tested on: MDA-MB-231 breast

SMILES | GI50 [1] [µM] | TGI [1] | GI50 [2] [µM] | TGI [2] | GI50 [3] [µM] | TGI [3] [µM] | GI50 [4] [µM] | TGI [4] [µM] | GI50 [5] [µM] | TGI [5] [µM] | GI50 [6] [µM] | TGI [6] | GI50 [7] [µM] | TGI [7] | GI50 [8] [µM] | TGI [8] | GI50 [9] [µM] | TGI [9] | TGI [10] [µM]
CC(=O)NC(CS)C(=O)O (centres undefined) | > 100 | > 100 µM and 88800 µM | > 100 | > 100 µM and 66300 µM | > 100 | > 100 | > 100 | > 100 | > 100 | > 100 | > 100 | > 100 µM and 3720 µM | > 100 | > 100 µM and 58500 µM | > 100 | > 100 µM and 45400 µM | > 100 | > 100 µM and 89800 µM | 
COc1cccc(N2C(=O)/C(=C/c3ccc(N(CCC#N)CCC#N)cc3)N=C2c2cc([N+](=O)[O-])ccc2Cl)c1 |  | > 100 µM |  | > 100 µM |  | > 100 |  | > 100 |  | 68.2 |  | > 100 µM |  | > 100 µM |  | > 100 µM |  | > 100 µM | 
CC12CC/C(=N/NC(N)=O)C3C1CCCC32 |  | > 100 µM |  | > 100 µM |  | > 100 |  | > 100 |  | > 100 |  | > 100 µM |  | > 100 µM |  | > 100 µM |  | > 100 µM | 
Cc1ccc(C(=O)C(c2nc3n(c2O)C(=N)N=N3)c2nc3n(c2O)C(=N)N=N3)cc1 (centres undefined) |  | > 100 µM |  | > 100 µM |  | > 100 |  | > 100 |  | > 100 |  | > 100 µM |  | > 100 µM |  | > 100 µM |  | > 100 µM | 
COC(=O)C(=O)C(C#N)c1cccc(Cl)c1 (centres undefined) |  | > 100 µM |  | > 100 µM |  | > 100 |  | > 100 |  | > 100 |  | > 100 µM |  | > 100 µM |  | > 100 µM |  | > 100 µM | 
O=C[C@]12CC=C3OC4OC5(CCCCC5)OC4[C@H]3[C@H]1C(=O)C=CC2=O (some centres undefined) |  | 34.6 µM |  | > 100 µM |  | 96.3 |  | 38.9 |  | 15.3 |  |  |  |  |  | 40.8 µM |  |  | 
Cn1nc(-c2ccccc2)c2c(/C=C/c3ccc(Cl)cc3)onc2c1=O |  | 84.3 µM |  |  |  | > 100 |  | > 100 |  | > 100 |  | > 100 µM |  |  |  | 71.4 µM |  |  | 
Cc1cc2nc3c(=O)[nH]c(=O)nc-3n(CC(O)C(O)C(O)CO)c2cc1N (centres undefined) |  | > 100 µM |  | > 100 µM |  | > 100 |  | > 100 |  | > 100 |  | > 100 µM |  | > 100 µM |  | > 100 µM |  | > 100 µM | 
CC12CCCC(C#N)(C1)OC2=O (centres undefined) |  | > 100 µM |  | > 100 µM |  | > 100 |  | > 100 |  | > 100 |  |  |  | > 100 µM |  | > 100 µM |  | > 100 µM | 
CC1NC(C(=O)O)Cc2cc(O)c(O)cc21 (centres undefined) |  | > 100 µM |  | > 100 µM |  | > 100 |  | > 100 |  | > 100 |  | > 100 µM |  | > 100 µM |  | > 100 µM |  |  | > 100
CN(C)CCCOc1ccc(/C=C2/CCC/C(=C/c3ccc(OCCCN(C)C)cc3)C2=O)cc1 |  | 6.5 µM |  | 3.69 µM |  | 4 |  | 3.73 |  | 2.5 |  | 3.43 µM |  | 5.56 µM |  | 3.34 µM |  | 2.61 µM | 
O=C1C(Cl)=C(Cl)C(=O)N1c1ccccc1Cl |  | > 100 µM |  | > 100 µM |  | > 100 |  | > 95 |  | > 78.5 |  | > 88.1 µM |  | > 100 µM |  | > 100 µM |  | > 100 µM | 
N#CC(C(=O)/C(=N/NC(=O)c1ccccc1O)C(C#N)c1ccc(Br)cc1)c1ccc(Br)cc1 (centres undefined) |  | 19.8 µM |  | 25 µM |  | 28.2 |  | 18.1 |  | 44 |  |  |  | 26.4 µM |  | 26.1 µM |  | 9.98 µM | 
N#CCCN(C1=NN(C(=O)CC(=O)Nc2ccc(Cl)cc2)C(c2ccccc2)C1)c1ccc(Cl)cc1 (centres undefined) |  | > 100 µM |  | > 100 µM |  | > 100 |  | > 100 |  | > 100 |  | > 100 µM |  | > 100 µM |  | > 100 µM |  | > 100 µM | 
CC[O-].CC[O-].COc1ccc(C(=O)[CH-]C(C)=O)cc1OC.COc1ccc(C(=O)[CH-]C(C)=O)cc1OC.[Ti+4] | 81.9 | > 100 µM | 78.3 | > 100 µM | > 100 | > 100 | > 100 | > 100 | 35.4 | > 100 | 44.6 | > 100 µM | 46.4 | > 100 µM | 11.7 | 49.7 µM | 26.9 | > 100 µM | 
Cc1ccccc1C=NC12CC3CC(CC(C3)C1)C2 |  | > 100 µM |  | > 100 µM |  | > 100 |  | > 100 |  | > 100 |  | > 100 µM |  | > 100 µM |  | > 100 µM |  | > 100 µM | 
